Source: patent US12583839B2, “PD-L1 antagonist compound” (ADLAI NORTYE BIOPHARMA CO., LTD., priority 2019, dated 2026)

Molecular target: T1, PD-1/PD-L1 (Homo sapiens, UniProt Q9NZQ7)
T1 construct: 60535 (PD-1/NFAT-Reporter-Jurkat); host or cells: CHO cells expressing PD-L1; Jurkat cells expressing PD-1
Test: Detection of biological activity of PD-1/PD-L1 signaling inhibition at the cellular level (NFAT luciferase reporter, PD-1/NFAT-Reporter-Jurkat cells co-cultured with TCR activator/PD-L1-CHO cells)
Assay type: cell-based
Details: PD-1/NFAT-Reporter-Jurkat + TCR activator/PD-L1-CHO co-culture, 6 hours; Atezolizumab as positive control
Summary of the method: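 CHO cells expressing PD-L1 and a TCR activator were seeded overnight at 37° C, pre-treated with compound for 30 minutes, then co-cultured 6 hours with Jurkat cells carrying PD-1 and an NFAT-luciferase reporter. Luminescence was read, and inhibition % was normalised between 0.1% DMSO and about 10 nM atezolizumab controls.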

T1 sequence (Q9NZQ7 19-290): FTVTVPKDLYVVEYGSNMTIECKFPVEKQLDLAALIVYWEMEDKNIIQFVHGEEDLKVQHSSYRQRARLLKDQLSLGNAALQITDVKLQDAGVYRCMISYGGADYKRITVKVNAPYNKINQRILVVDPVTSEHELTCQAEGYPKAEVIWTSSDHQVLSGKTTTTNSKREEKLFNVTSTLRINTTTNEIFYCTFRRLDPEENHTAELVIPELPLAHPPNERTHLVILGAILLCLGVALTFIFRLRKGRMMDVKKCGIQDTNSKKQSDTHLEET

EC50 [µM] | SMILES
0.393 | COc1cc(-c2cccc(-c3c(Cl)ccc4c3cnn4Cc3cc(OC)c(CN[C@@H](CO)C(=O)O)cc3Cl)c2Cl)ccc1CNC[C@@H]1CCC(=O)N1 [Compound 154]
0.145 | COc1cc(Cn2ncc3c(-c4cccc(-c5cc(Cl)c(CNC[C@@H]6CCC(=O)N6)c(OC)c5)c4Cl)cccc32)c(Cl)cc1CN(C)CC1CCC(C(=O)O)CC1 (stereo partly drawn) [Compound 155]
0.09 | COc1cc(Cn2ncc3c(-c4cccc(-c5ccc(CNC[C@@H]6CCC(=O)N6)c(OC)n5)c4Cl)cccc32)c(Cl)c(F)c1CN(C)C12CCC(C(=O)O)(CC1)CC2 [Compound 157]
1.01 | COc1cc(-c2cccc(-c3ccc(Cl)c4c3cnn4Cc3cc(OC)c(CN[C@@H](CO)C(=O)O)cc3Cl)c2Cl)ccc1CNC[C@@H]1CCC(=O)N1 [Compound 158]
0.037 | CCN(Cc1cc(Cl)c(Cn2ncc3c(-c4cccc(-c5cc(F)c(CNC[C@@H]6CCC(=O)N6)c(OC)c5)c4Cl)cccc32)cc1OC)C12CCC(C(=O)O)(CC1)CC2 [Compound 159]
0.046 | COc1cc(Cn2ncc3c(-c4cccc(-c5cc(F)c(CNC[C@@H]6CCC(=O)N6)c(OC)c5)c4Cl)cccc32)c(Cl)cc1CN(C)C12CCC(CC(=O)O)(CC1)CC2 [Compound 160]
0.075 | COc1cc(Cn2ncc3c(-c4cccc(-c5cc(F)c(CNC[C@@H]6CCC(=O)N6)c(OC)c5)c4C)cccc32)c(Cl)cc1CN(C)C12CCC(C(=O)O)(CC1)CC2 [Compound 161]
0.044 | COc1cc(Cn2ncc3c(-c4cccc(-c5cc(F)c(CNC[C@@H]6CCC(=O)N6)c(OC)c5)c4Cl)cccc32)c(Cl)cc1CN(C)[C@H]1CC[C@H](O)CC1 [Compound 162]
0.026 | COc1cc(-c2cccc(-c3cccc4c3cnn4Cc3nc(OC)c(CN(C)[C@H]4CC[C@H](C(=O)O)CC4)cc3Cl)c2Cl)cc(F)c1CNC[C@@H]1CCC(=O)N1 [Compound 163]
0.105 | COc1cc(Cn2ncc3c(-c4cccc(-c5ccc(CNC[C@@H]6CCC(=O)N6)c(OC)n5)c4C)cccc32)c(Cl)cc1CN(C)C12CCC(C(=O)O)(CC1)CC2 [Compound 164]
0.049 | COc1cc(-c2cccc(-c3cccc4c3cnn4Cc3nc(OC)c(CN(C)C45CCC(C(=O)O)(CC4)CC5)cc3Cl)c2C)cc(F)c1CNC[C@@H]1CCC(=O)N1 [Compound 166]
0.053 | COc1cc(Cn2ncc3c(-c4cccc(-c5cc(F)c(CNC[C@H]6CCC(=O)N6)c(OC)c5)c4Cl)cccc32)c(Cl)cc1CN(C)C12CCC(C(=O)O)(CC1)CC2 [Compound 167]
0.069 | COc1cc(Cn2ncc3c(-c4cccc(-c5cc(F)c(CNC[C@@H]6CCCC(=O)N6)c(OC)c5)c4Cl)cccc32)c(Cl)cc1CN(C)C12CCC(C(=O)O)(CC1)CC2 [Compound 168]
0.059 | COc1nc(-c2cccc(-c3cccc4c3cnn4Cc3nc(OC)c(CN(C)C45CCC(C(=O)O)(CC4)CC5)cc3Cl)c2C)ccc1CNC[C@@H]1CCC(=O)N1 [Compound 169]
0.265 | COc1cc(Cn2ncc3c(-c4cccc(-c5cnc(CNC[C@@H]6CCC(=O)N6)c(OC)n5)c4C)cccc32)c(Cl)cc1CN(C)C12CCC(C(=O)O)(CC1)CC2 [Compound 170]
0.04 | COc1cc(Cn2ncc3c(-c4cccc(-c5cc(F)c(CNC[C@@H]6CCC(=O)N6)c(OC)c5)c4Cl)cccc32)c(Cl)cc1CN(CCO)[C@H]1CC[C@H](C(=O)O)CC1 [Compound 171]
0.032 | COc1cc(-c2cccc(-c3cccc4c3cnn4Cc3nc(OC)c(CN(C)C45CCC(C(=O)O)(CC4)CC5)cc3Cl)c2Cl)cc(F)c1CNC[C@@H]1CCCC(=O)N1 [Compound 172]
0.222 | COc1cc(-c2cccc(-c3cccc4c3cnn4Cc3cc(N)c(CN(C)[C@H]4CC[C@H](C(=O)O)CC4)cc3Cl)c2Cl)cc(F)c1CNC[C@@H]1CCC(=O)N1 [Compound 173]
